Assay results from ChEMBL document CHEMBL3885881, “DrugMatrix”.

Organism: Rattus norvegicus
Test: DrugMatrix - Regimen: Daily Repeat
Format: toxicity, organism-based, Sprague-Dawley
Set-up: regimen Daily Repeat, gender Male, age 6-8 weeks
Conditions: in vivo, po, route oral GAVAGE, […]; for ABSOLUTE BASOPHIL / ABSOLUTE EOSINOPHIL / ABSOLUTE LYMPHOCYTE / ABSOLUTE MONOCYTE / ABSOLUTE SEGMENTED NEUTROPHIL / BASOPHIL / EOSINOPHIL / ERYTHROCYTE COUNT / HEMATOCRIT / HEMOGLOBIN / LEUKOCYTE COUNT / LYMPHOCYTE / MEAN CORPUSCULAR HEMOGLOBIN / MEAN CORPUSCULAR HEMOGLOBIN CONCENTRATION / MEAN CORPUSCULAR VOLUME / MONOCYTE / NEUTROPHIL / NUCLEATED RED BLOOD CELLS / PLATELET COUNT: tissue Blood; for ALANINE AMINOTRANSFERASE / ALBUMIN / ALKALINE PHOSPHATASE / ASPARTATE AMINOTRANSFERASE / BLOOD UREA NITROGEN / CARBON DIOXIDE / CHLORIDE / CHOLESTEROL / CREATINE PHOSPHOKINASE / CREATININE / GLUCOSE / LACTATE DEHYDROGENASE / LIPASE / PHOSPHORUS / POTASSIUM / SODIUM / TOTAL BILIRUBIN / TOTAL PROTEIN / URIC ACID: tissue Plasma
[1] = 0 mg/kg, 72 h, dose level Control, time 3 day
[2] = 0 mg/kg, 120 h, dose level Control, time 5 day
[3] = 6 mg/kg, 72 h, dose level Low, time 3 day

CO[C@H]1O[C@@H]2O[C@@]3(C)CC[C@H]4[C@H](C)CC[C@@H]([C@H]1C)[C@@]24OO3
ABSOLUTE BASOPHIL [1]: 0 CELLS/uL
ABSOLUTE EOSINOPHIL [1]: 138.5 CELLS/uL
ABSOLUTE LYMPHOCYTE [1]: 13978.67 CELLS/uL
ABSOLUTE MONOCYTE [1]: 391 CELLS/uL
ABSOLUTE SEGMENTED NEUTROPHIL [1]: 1608.5 CELLS/uL
BASOPHIL [1]: 0%
EOSINOPHIL [1]: 1%
ERYTHROCYTE COUNT [1]: 5.8 x10E6/uL
HEMATOCRIT [1]: 36.22%
HEMOGLOBIN [1]: 13.65 G/DL
LEUKOCYTE COUNT [1]: 16.12 x10E3/uL
LYMPHOCYTE [1]: 86.67%
MEAN CORPUSCULAR HEMOGLOBIN [1]: 23.58 pg
MEAN CORPUSCULAR HEMOGLOBIN CONCENTRATION [1]: 37.72 G/DL
MEAN CORPUSCULAR VOLUME [1]: 62.52 fL
MONOCYTE [1]: 2.5%
NEUTROPHIL [1]: 9.83%
NUCLEATED RED BLOOD CELLS [1]: 0 /100WBC
PLATELET COUNT [1]: 1214.17 x10E3/uL
ALANINE AMINOTRANSFERASE [1]: 59.5 u/L
ALBUMIN [1]: 4.1 G/DL
ALKALINE PHOSPHATASE [1]: 393.83 u/L
ASPARTATE AMINOTRANSFERASE [1]: 87.83 u/L
BLOOD UREA NITROGEN [1]: 16.33 mg/dL
CARBON DIOXIDE [1]: 28.17 mmol/L
CHLORIDE [1]: 100.83 MEQ/L
CHOLESTEROL [1]: 73.33 mg/dL
CREATINE PHOSPHOKINASE [1]: 398 u/L
CREATININE [1]: 0.2 mg/dL
GLUCOSE [1]: 152.67 mg/dL
LACTATE DEHYDROGENASE [1]: 501.5 u/L
LIPASE [1]: 9.5 u/L
PHOSPHORUS [1]: 10.77 mg/dL
POTASSIUM [1]: 6.44 MEQ/L
SODIUM [1]: 143.4 MEQ/L
TOTAL BILIRUBIN [1]: 0.17 mg/dL
TOTAL PROTEIN [1]: 5.92 G/DL
URIC ACID [1]: 1.68 mg/dL
ABSOLUTE BASOPHIL [2]: 0 CELLS/uL
ABSOLUTE EOSINOPHIL [2]: 183.33 CELLS/uL
ABSOLUTE LYMPHOCYTE [2]: 14952.83 CELLS/uL
ABSOLUTE MONOCYTE [2]: 238.5 CELLS/uL
ABSOLUTE SEGMENTED NEUTROPHIL [2]: 1642 CELLS/uL
BASOPHIL [2]: 0%
EOSINOPHIL [2]: 1%
ERYTHROCYTE COUNT [2]: 5.89 x10E6/uL
HEMATOCRIT [2]: 36.13%
HEMOGLOBIN [2]: 13.37 G/DL
LEUKOCYTE COUNT [2]: 17.02 x10E3/uL
LYMPHOCYTE [2]: 87.17%
MEAN CORPUSCULAR HEMOGLOBIN [2]: 22.73 pg
MEAN CORPUSCULAR HEMOGLOBIN CONCENTRATION [2]: 37.02 G/DL
MEAN CORPUSCULAR VOLUME [2]: 61.45 fL
MONOCYTE [2]: 1.5%
NEUTROPHIL [2]: 10.33%
NUCLEATED RED BLOOD CELLS [2]: 0 /100WBC
PLATELET COUNT [2]: 1183.5 x10E3/uL
ALANINE AMINOTRANSFERASE [2]: 54.83 u/L
ALBUMIN [2]: 4.28 G/DL
ALKALINE PHOSPHATASE [2]: 363.17 u/L
ASPARTATE AMINOTRANSFERASE [2]: 96.83 u/L
BLOOD UREA NITROGEN [2]: 15.67 mg/dL
CARBON DIOXIDE [2]: 26.17 mmol/L
CHLORIDE [2]: 102.67 MEQ/L
CHOLESTEROL [2]: 63.67 mg/dL
CREATINE PHOSPHOKINASE [2]: 594.33 u/L
CREATININE [2]: 0.2 mg/dL
GLUCOSE [2]: 182.33 mg/dL
LACTATE DEHYDROGENASE [2]: 656.5 u/L
LIPASE [2]: 9.33 u/L
PHOSPHORUS [2]: 11.7 mg/dL
POTASSIUM [2]: 5.92 MEQ/L
SODIUM [2]: 142.62 MEQ/L
TOTAL BILIRUBIN [2]: 0.13 mg/dL
TOTAL PROTEIN [2]: 5.85 G/DL
URIC ACID [2]: 1.8 mg/dL
ABSOLUTE BASOPHIL [3]: 0 CELLS/uL
ABSOLUTE EOSINOPHIL [3]: 0 CELLS/uL
ABSOLUTE LYMPHOCYTE [3]: 14690 CELLS/uL
ABSOLUTE MONOCYTE [3]: 490.33 CELLS/uL
ABSOLUTE SEGMENTED NEUTROPHIL [3]: 1319.67 CELLS/uL
BASOPHIL [3]: 0%
EOSINOPHIL [3]: 0%
ERYTHROCYTE COUNT [3]: 5.7 x10E6/uL
HEMATOCRIT [3]: 36.23%
HEMOGLOBIN [3]: 13.63 G/DL
LEUKOCYTE COUNT [3]: 16.5 x10E3/uL
LYMPHOCYTE [3]: 88.67%
MEAN CORPUSCULAR HEMOGLOBIN [3]: 23.93 pg
MEAN CORPUSCULAR HEMOGLOBIN CONCENTRATION [3]: 37.67 G/DL
MEAN CORPUSCULAR VOLUME [3]: 63.6 fL
MONOCYTE [3]: 3%
NEUTROPHIL [3]: 8.33%
NUCLEATED RED BLOOD CELLS [3]: 0 /100WBC
PLATELET COUNT [3]: 1120 x10E3/uL
ALANINE AMINOTRANSFERASE [3]: 66.67 u/L
ALBUMIN [3]: 4.17 G/DL
ALKALINE PHOSPHATASE [3]: 405.67 u/L
ASPARTATE AMINOTRANSFERASE [3]: 88.33 u/L
BLOOD UREA NITROGEN [3]: 16.33 mg/dL
CARBON DIOXIDE [3]: 25.67 mmol/L
CHLORIDE [3]: 103 MEQ/L
CHOLESTEROL [3]: 70.33 mg/dL
CREATINE PHOSPHOKINASE [3]: 249.33 u/L
CREATININE [3]: 0.21 mg/dL
GLUCOSE [3]: 155.33 mg/dL
LACTATE DEHYDROGENASE [3]: 155 u/L
LIPASE [3]: 9.33 u/L
PHOSPHORUS [3]: 11.6 mg/dL
POTASSIUM [3]: 6.23 MEQ/L
SODIUM [3]: 145.23 MEQ/L
TOTAL BILIRUBIN [3]: 0.2 mg/dL
TOTAL PROTEIN [3]: 5.8 G/DL
URIC ACID [3]: 1.47 mg/dL
